Patent publication US12115153B2, “Methods of treating cancer” (Kartos Therapeutics, Inc., priority 2018, dated 2024)

Legend:
[1] = tested on: tumor cell lines harboring wild-type p53; assay: Xenograft models of different genetic backgrounds and tumor types (all models); assay type: in vivo, female athymic nude mice; conditions: daily oral administration, FIGS. 3-5
Procedure: (§1) All animal experimental procedures were conducted in accordance with Association for Assessment and Accreditation of Laboratory Animal Care standards. All studies utilized 4- to 6-week-old female athymic nude mice (Harlan Laboratories, Hsd: Athymic Nude-Foxn1nu). The mice were housed five per filter-capped cage in sterile housing in an environmentally controlled room (temperature 23±2° C., relative humidity 50±20%) on a 12-hour light/dark cycle. The mice were fed commercial rodent chow (Harlan Laboratories, #2920X) and received filter-purified tap water ad libitum. The mice were individually identified by microchips (Bio Medic Data Systems) that were implanted subcutaneously at least 2 days before the study.
(§2) SJSA-1 cells (5×10^6 cells with Matrigel at a ratio of 2:1), NCI-H460 cells (5×10^6 cells with Matrigel at a ratio of 2:1), A375sq2 (5×10^6 cells with Matrigel at a ratio of 2:1), or HCT116 ([…]) were injected subcutaneously in the flank of female athymic nude mice (n=10/group). Treatment began when tumors were established and approximately 200 mm3. […] Tumor dimensions were assessed twice weekly with a Pro-Max electronic digital caliper (Sylvac) and tumor volume was calculated using the formula: length×width×height and expressed as mm3. Data are expressed as mean±SEM. Body weight was recorded twice weekly to assess tolerability (data not shown). […]

[2] = tested on: p53 wild-type tumor cell lines; assay: Cell viability assay (72 hours), panel of tumor cell lines; assay type: cell-based
Text: SJSA-1, HCT116, ACHN, NCI-H460, MOLM-13, RKO, MCF7, 22RV1, HT-29, PC-3, NCI-H82, NCI-SNU1, and MG-63 cells were purchased from the ATCC, and have since been authenticated by short tandem repeat analysis (PowerPlex 18D Kit from Promega). NCI-H2452, SW982, C32, SK-HEP-1, A375, RT4, RPMI-2650, MDA-MB-134-VI, NCI-H2347, and A427 cells were purchased from ATCC and used within 6 months. IGR-1 and CML-T1 cells were purchased from German Collection of Microorganisms and Cell Cultures (DSMZ) and used within 6 months. A375sq2 cells were generated by in vivo passaging A375 cells in mice. HCT116 p53^−/− cells were obtained from Bert Vogelstein. […]
CellTiter-Glo Luminescent Cell Viability (Promega) or ATPlite 1 step Luminescent (PerkinElmer) assay kits were used to determine the numbers of viable cells. Luminescence was measured with an EnVision Multilabel Reader (PerkinElmer) for each cell line at time zero (V0) before the addition of compounds, as well as after 72 hours of compound treatment. Growth inhibition (GI) was calculated on a 200-point scale according to the following equations, where V72 was luminescence of DMSO control at 72 hours and T72 was luminescence of the compound-treated sample: if T72>V0, then GI=100×(1−((T72−V0)/(V72−V0))); if T72<V0, then GI=100×(1−((T72−V0)/V0)). […]

A375sq2 (BRAF) tumor = assay: A375sq2 xenograft study; assay type: in vivo, female athymic nude mice
Procedure: as §1, §2

AML tumor = AML tumor growth (FIG. 7, FIG. 8); assay type: in vivo, mouse
cell cycle = assay: Cell cycle (FIG. 9); assay type: cell-based
[3] = tested on: p53 wild type AML cell lines; assay: Apoptosis in AML cell lines (FIG. 10); assay type: cell-based
p21 mRNA = p21 mRNA in tumors harvested at the end of xenograft studies (qRT-PCR); assay type: in vivo, female athymic nude mice; conditions: FIG. 6
Procedure: Tumor cells (SJSA-1: 5×10^6 cells, HCT 116: 2×10^6 cells) were injected subcutaneously into the flank of female athymic nude mice in a 2:1 ratio of cells to Matrigel (BD Bioscience). […] Tumors were harvested after 1, 2, 4, 8, and 24 hours after dose (SJSA-1) or 6 hours after dose (HCT116) and snap-frozen in liquid nitrogen. Total RNA was purified using Qiagen RNeasy 96 kit (Qiagen). The levels of p21 and the housekeeping gene GAPDH were assayed from total RNA from each sample in technical duplicates by qRTPCR. The qRT-PCR reactions were assayed on the Applied Biosystems Prism 7900HT instrument and the data were analyzed with Applied Biosystems SDS2.2 software. The SDS2.2 software calculated the p21 and GAPDH copy number in each of the tumor samples. The copy number of p21 was normalized to the copy number of the GAPDH, and the fold increase of normalized p21 levels were calculated relative to vehicle control for each sample. For MIC-1, plasma was collected at the time of sacrifice and MIC-1 was detected using R&D Quantikine Human MIC-1 Immunoassay (cat no. DGD150) following the manufacturer's instructions. The ELISA assay was read using a Spectramax M5 microplate reader using Softmax pro v4 (Molecular Devices). […]

[4] = tested on: SJSA-1 (MDM2 amplified) tumor; assay: SJSA-1 xenograft study; assay type: in vivo, female athymic nude mice
Procedure: as §1
Treatment began when tumors were established and approximately 200 mm3. […] Tumor dimensions were assessed twice weekly with a Pro-Max electronic digital caliper (Sylvac) and tumor volume was calculated using the formula: length×width×height and expressed as mm3. Data are expressed as mean±SEM. […] Analysis of p21 mRNA at the end of the xenograft studies was performed as described for the p21 pharmacodynamic assay.

HCT116 (KRAS) tumor = assay: HCT116 xenograft study; assay type: in vivo, female athymic nude mice
Procedure: as §1
SJSA-1 cells (5×10^6 cells with Matrigel at a ratio of 2:1), NCI-H460 cells (5×10^6 cells with Matrigel at a ratio of 2:1), A375sq2 (5×10^6 cells with Matrigel at a ratio of 2:1), or HCT116 ([…]) were injected subcutaneously in the flank of female athymic nude mice (n=10/group). Treatment began when tumors were established and approximately 200 mm3. The compound of Formula (I) was administered once per day by oral gavage. Tumor dimensions were assessed twice weekly with a Pro-Max electronic digital caliper (Sylvac) and tumor volume was calculated using the formula: length×width×height and expressed as mm3. Data are expressed as mean±SEM. Body weight was recorded twice weekly to assess tolerability (data not shown). Analysis of p21 mRNA at the end of the xenograft studies was performed as described for the p21 pharmacodynamic assay.

With CC(C)[C@@H](CS(=O)(=O)C(C)C)N1C(=O)[C@@](C)(CC(=O)O)C[C@H](c2cccc(Cl)c2)[C@H]1c1ccc(Cl)cc1 [compound of Formula (I), 2-((3R,5R,6S)-5-(3-chlorophenyl)-6-(4-chlorophenyl)-1-((S)-1-(isopropylsulfonyl)-3-methylbutan-2-yl)-3-methyl-2-oxopiperidin-3-yl) acetic acid] the “tumor growth inhibition (TGI) across all models” value [1] was “significant tumor growth inhibition”, the IC50 ([2]; 23 p53 wild-type cell lines, 72-hour period, read-out: IC50, inhibition of cell growth) was 100 to 1000 nM and the “proliferation of p53 WT tumor cells” value ([2]; FIG. 2) was “inhibits the proliferation of p53 WT tumor cells”. The ED50 (A375sq2 (BRAF) tumor; Mus musculus, A375-SQ2, once per day by oral gavage, read-out: ED50, in vivo tumor growth) was 18 mg/kg, the TGI (A375sq2 (BRAF) tumor; mouse, in vivo) was 97% and the AML tumor growth (AML tumor) was “inhibits AML tumor growth in a mouse model in a dose dependent manner”. The “effect on cell cycle” value (cell cycle) was “inhibits the cell cycle”, the apoptosis [3] was “induces apoptosis” and the “induction of p21 mRNA compared with vehicle-treated tumors” value (p21 mRNA) was “dose- and time-dependent induction of p21 mRNA”. The “tumor regrowth after treatment stopped” value ([4]; 75 mg/kg group, treatment stopped after day 25, observed additional 50 days) was “no detectable SJSA-1 tumor regrowth”, the ED50 ([4]; Mus musculus, SJSA-1, po, once per day by oral gavage, read-out: ED50, in vivo tumor growth) was 9 mg/kg and the “tumors completely regressed and undetectable” value ([4]; highest dose group of 75 mg/kg, after 10 days of treatment) was 10 of 10. The ED50 (HCT116 (KRAS) tumor; Mus musculus, HCT-116, po, once per day by oral gavage, read-out: ED50, in vivo tumor growth) was 31.6 mg/kg, the “TGI compared with control” value (HCT116 (KRAS) tumor; highest dose) was 86% and the “ED50, in vivo tumor growth” value (HCT116 (KRAS) tumor; once per day by oral gavage) was 31 mg/kg.
